Columns and labels:
Assay type in all cases: cell-based, Chinese hamster
[1] = test system: Cells producing MAb C; assay: mock perfusion assay, glycan analysis
Description: (§1) Mock perfusion assay is a small scale, plate-based assay that is designed to mimic perfusion conditions in bioreactors through daily medium exchanges. For a 10-day mock perfusion assay, passaging cultures of various production cell lines were diluted 1:5 into chemically defined base perfusion medium in a 24 deep-well plate at a final volume of 3 ml per well. Mock perfusion was initiated on day 3 when the cells were spun down at 1000 rpm for 5 minutes and 25% of each spent culture medium was exchanged with the equivalent volume of fresh perfusion media. Subsequent medium exchange percentages were 40% on days 4-8 and 50% on day 9. Exchanged supernatants were stored at 4° C. prior to analysis.
(§2) Analysis of cell culture parameters was also started on day 3; viable cell density and viability were analyzed using the ViaCount Guava assay as previously described. Glucose was measured daily starting on day 3 and was maintained at 12 g/l. Stored supernatants were analyzed for antibody titer as described previously. Samples of supernatant fluid from days 6, 8 and 10 were also analyzed for the presence and type of glycans by HILIC analysis.
Equivalent volumes of methanol were added daily to control cultures (columns 1 and 2 of the 24-well plate). This scheme is depicted below:
(§3) Total high mannose values (Total HM column) and the corresponding distributions into high mannose species from Man5 through Man9 were determined for purified antibody samples collected on day 10. Each value shown in Table 4 represents an average of duplicates.

[2] = test system: Cells producing MAb D; assay: mock perfusion assay, glycan analysis; conditions: for Man5 / Man6 / Man7 / Man8a / Man8b / Man9: day 10
Description: as §1, §2
(§4) The cell lines used included three production cell lines that are known to generate mAbs with low high mannose glycans (MAb A, MAb B and MAb C) and one production cell line that consistently produces product with high levels of high mannose glycans (MAb D). […] Equivalent volumes of methanol were added daily to control cultures (columns 1 and 2 of the 24-well plate). This scheme is depicted below:
as §3

[3] = test system: Cells producing MAb B; assay: mock perfusion assay, glycan analysis; conditions: for Man5 / Man6 / Man7 / Man8a / Man8b / Man9: day 10
Description: as §1, §2, §4, §3

[4] = test system: Cells producing MAb D; assay: mock perfusion assay, cell culture parameters; conditions: for CVCD / Cumulative Titer / End of Production Viability / qP: MAb D
Description: as §1, §2, §4
(§5) Viable cell density (VCD) and viability were measured daily starting on day 3. Spent medium samples were collected on days 3-10 and were subjected to titer analysis. Viable cell densities were used to calculate cumulative viable cell densities, which were along with cumulative titer values used to calculate specific productivities (qP). Every value shown is an average of duplicates.

[5] = test system: Cells producing MAb A; assay: mock perfusion assay, cell culture parameters; conditions: for CVCD / Cumulative Titer / End of Production Viability / qP: MAb A
Description: as §1, §2, §4, §5

[6] = test system: Cells producing MAb B; assay: mock perfusion assay, cell culture parameters; conditions: for CVCD / Cumulative Titer / End of Production Viability / qP: MAb B
Description: as §1, §2, §4, §5

[7] = test system: Cells producing MAb C; assay: mock perfusion assay, cell culture parameters; conditions: for CVCD / Cumulative Titer / End of Production Viability / qP: MAb C
Description: as §1, §2, §4, §5

[8] = test system: production cell lines (MAb A, MAb B, MAb C, MAb D); assay: mock perfusion assay, glycan analysis, all four production cell lines
Description: as §1, §2
The cell lines used included three production cell lines that are known to generate mAbs with low high mannose glycans (MAb A, MAb B and MAb C) and one production cell line that consistently produces product with high levels of high mannose glycans (MAb D). […]

[9] = constant monensin 25 nM from day 3, Day 6
[10] = constant monensin 25 nM from day 3, Day 8
[11] = constant monensin 25 nM from day 3, Day 10
[12] = constant monensin 25 nM, day 10
[13] = increasing monensin (25 nM day 4, 50 nM days 5-6, 100 nM days 7-9), Day 6
[14] = increasing monensin (25 nM day 4, 50 nM days 5-6, 100 nM days 7-9), Day 8
[15] = increasing monensin (25 nM day 4, 50 nM days 5-6, 100 nM days 7-9), Day 10
[16] = increasing monensin (to 100 nM), day 10
[17] = increasing monensin (to 100 nM)

CC[C@@]1([C@@H]2O[C@@H]([C@H]3O[C@@](O)(CO)[C@H](C)C[C@@H]3C)C[C@@H]2C)CC[C@H]([C@]2(C)CC[C@]3(C[C@H](O)[C@@H](C)[C@@H]([C@@H](C)[C@@H](OC)[C@H](C)C(=O)O)O3)O2)O1 [monensin]
Total HM [1, 9]: 49.6%
Total HM [1, 10]: 31.1%
Total HM [1, 11]: 30.9%
Man6 [1, 12]: 5.3%
Man7 [1, 12]: 3.6%
Man8a [1, 12]: 0.7%
Man8b [1, 12]: 1.4%
Man9 [1, 12]: 0.3%
Total HM [1, 13]: 56.6%
Total HM [1, 14]: 67.6%
Total HM [1, 15]: 65.8%
Man5 [1, 16]: 31.6%
Man6 [1, 16]: 13.7%
Man7 [1, 16]: 12.3%
Man8a [1, 16]: 1.0%
Man8b [1, 16]: 5.9%
Man9 [1, 16]: 1.3%
Total HM [2, 9]: 70.6%
Total HM [2, 10]: 80.1%
Total HM [2, 11]: 72.6%
Man5 ([2]; constant monensin 25 nM): 30.4%
Man6 ([2]; constant monensin 25 nM): 14.7%
Man7 ([2]; constant monensin 25 nM): 15.3%
Man8a ([2]; constant monensin 25 nM): 0.7%
Man8b ([2]; constant monensin 25 nM): 10.1%
Man9 ([2]; constant monensin 25 nM): 1.4%
high mannose species upregulated ([2]; increasing dose of monensin): primarily upregulated Man7 and Man8(b) high mannose glycans
Total HM [2, 13]: 83.0%
Total HM [2, 14]: 92.5%
Total HM [2, 15]: 94.9%
Man5 [2, 17]: 12.8%
Man6 [2, 17]: 14.9%
Man7 [2, 17]: 27.2%
Man8a [2, 17]: 0.8%
Man8b [2, 17]: 34.3%
Man9 [2, 17]: 5.0%
Total HM [3, 9]: 9.6%
Total HM [3, 10]: 4.6%
Total HM [3, 11]: 4.0%
Man5 ([3]; constant monensin 25 nM): 2.2%
Man6 ([3]; constant monensin 25 nM): 0.7%
Man7 ([3]; constant monensin 25 nM): 0.5%
Man8a ([3]; constant monensin 25 nM): 0.3%
Man8b ([3]; constant monensin 25 nM): 0.3%
Man9 ([3]; constant monensin 25 nM): 0.0%
Total HM [3, 13]: 13.2%
Total HM [3, 14]: 12.4%
Total HM [3, 15]: 14.0%
Man5 [3, 17]: 7.7%
Man6 [3, 17]: 3.0%
Man7 [3, 17]: 2.0%
Man8a [3, 17]: 0.3%
Man8b [3, 17]: 0.9%
Man9 [3, 17]: 0.1%
effect on cell growth ([4]; MAb D cells, mock perfusion): similar, though not as pronounced, negative growth impact
effect on titer and specific productivity ([4]; MAb D cells, mock perfusion): slightly decreased the titer of MAb D cells but had no effect on specific productivity
CVCD ([4]; constant monensin 25 nM): 104 10^6 c-day/ml
Cumulative Titer ([4]; constant monensin 25 nM): 4.5 g/L
End of Production Viability ([4]; constant monensin 25 nM): 68%
qP ([4]; constant monensin 25 nM): 43 pg/c/d
CVCD [4, 17]: 89 10^6 c-day/ml
Cumulative Titer [4, 17]: 3.6 g/L
End of Production Viability [4, 17]: 53%
qP [4, 17]: 41 pg/c/d
effect on cell growth ([5]; MAb A cells, mock perfusion): decrease in total cell mass accumulation
effect on titer and specific productivity ([5]; MAb A cells, mock perfusion): decreased titer but increased specific productivity
CVCD ([5]; constant monensin 25 nM): 57 10^6 c-day/ml
Cumulative Titer ([5]; constant monensin 25 nM): 5.9 g/L
End of Production Viability ([5]; constant monensin 25 nM): 78%
qP ([5]; constant monensin 25 nM): 103 pg/c/d
CVCD ([5]; increasing monensin (to 50 nM)): 57 10^6 c-day/ml
Cumulative Titer ([5]; increasing monensin (to 50 nM)): 5.8 g/L
End of Production Viability ([5]; increasing monensin (to 50 nM)): 80%
qP ([5]; increasing monensin (to 50 nM)): 101 pg/c/d
effect on growth or viability ([6]; MAb B cells, mock perfusion): no effect on the growth or viability
effect on titer and specific productivity ([6]; MAb B cells, mock perfusion): no impact on either titer or specific productivity
CVCD ([6]; constant monensin 25 nM): 89 10^6 c-day/ml
Cumulative Titer ([6]; constant monensin 25 nM): 3.5 g/L
End of Production Viability ([6]; constant monensin 25 nM): 85%
qP ([6]; constant monensin 25 nM): 40 pg/c/d
CVCD [6, 17]: 88 10^6 c-day/ml
Cumulative Titer [6, 17]: 3.6 g/L
End of Production Viability [6, 17]: 83%
qP [6, 17]: 40 pg/c/d
effect on cumulative viable cell density and viability ([7]; MAb C cells, mock perfusion): slightly increased cumulative viable cell density and improved the viability
effect on titer and specific productivity ([7]; MAb C cells, mock perfusion): increased titer but slightly lower specific productivity
titer and cell culture impacts ([7]; MAb C cells, mock perfusion with monensin): no drop in titer or any other negative cell culture impacts
CVCD ([7]; constant monensin 25 nM): 215 10^6 c-day/ml
Cumulative Titer ([7]; constant monensin 25 nM): 7.4 g/L
End of Production Viability ([7]; constant monensin 25 nM): 77%
qP ([7]; constant monensin 25 nM): 34 pg/c/d
CVCD [7, 17]: 208 10^6 c-day/ml
Cumulative Titer [7, 17]: 7.1 g/L
End of Production Viability [7, 17]: 77%
qP [7, 17]: 34 pg/c/d
effect on high mannose glycans ([8]; all four antibody products, mock perfusion): increased high mannose glycans on all four antibody products tested in a dose dependent manner
increase of high mannose levels compared to the control samples ([8]; antibodies collected on day 10, depending on the monensin dose): 1.5 to 15 fold

— patent US11299760B2 (Amgen Inc., priority 2013, dated 2022)
